Source: ChEMBL document CHEMBL1123071 (J Med Chem, 1985)

Target: T1, Dihydrofolate reductase type 1 (Escherichia coli) (UniProt P00382)
T1 sequence (whole entry): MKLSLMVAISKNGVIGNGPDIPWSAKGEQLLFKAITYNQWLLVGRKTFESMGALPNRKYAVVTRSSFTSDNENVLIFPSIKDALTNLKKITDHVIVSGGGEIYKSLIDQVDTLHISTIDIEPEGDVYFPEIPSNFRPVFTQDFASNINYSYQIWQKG
Assay: Inhibition of dihydrofolate reductase (DHFR) from Escherichia coli.
Settings: not given

Compound | Log 1/C
CCOC(=O)c1ccc(N2C(N)=NC(N)=NC2(C)C)cc1 | 4.42
COc1ccc(Cc2cnc(N)nc2N)cc1C(F)(F)F | 7.69
CC1(C)N=C(N)N=C(N)N1c1cccc(C(=O)O)c1 | 3.89
CC1(C)N=C(N)N=C(N)N1c1cccc(Cl)c1 | 6.22
CC(=O)Nc1ccc(Cc2cnc(N)nc2N)cc1[N+](=O)[O-] | 6.97
CC1(C)N=C(N)N=C(N)N1CCc1ccccc1 | 5.42
CC1(C)N=C(N)N=C(N)N1c1cccc(C(F)(F)F)c1 | 5.64
CCCN1C(N)=NC(N)=NC1(C)C | 5.33
CN1C(N)=NC(N)=NC1(C)C | 4.32
CC1(C)N=C(N)N=C(N)N1c1ccccc1 | 5.52
CS(=O)(=O)Oc1cccc(Cc2cnc(N)nc2N)c1 | 6.92
CC1(C)N=C(N)N=C(N)N1c1ccc(Cl)c(Cl)c1 | 6.8
CC1(C)N=C(N)N=C(N)N1c1ccc(-c2ccccc2)cc1 | 5.24
CC1(C)N=C(N)N=C(N)N1c1ccc(C(=O)O)cc1 | 2.72
Nc1ncc(Cc2ccc([N+](=O)[O-])cc2)c(N)n1 | 6.2
CC1(C)N=C(N)N=C(N)N1c1ccc(Cl)cc1 | 6.4
CC1(C)N=C(N)N=C(N)N1c1cccc(Cc2ccccc2)c1 | 6.55
CC1(C)N=C(N)N=C(N)N1c1cccc([N+](=O)[O-])c1 | 5.51
CC1(C)N=C(N)N=C(N)N1CCCc1ccccc1 | 7.2
Nc1ncc(Cc2ccc(OC(F)(F)F)cc2)c(N)n1 | 6.57
COc1cccc(N2C(N)=NC(N)=NC2(C)C)c1 | 5.41
CC1(C)N=C(N)N=C(N)N1Cc1ccccc1 | 4.47
CC1(C)N=C(N)N=C(N)N1c1ccc(C#N)cc1 | 4.04

System: not given
Assay: not given
Settings: octanol/water

Compound | logP
NC(N)=S [THIOUREA] | -1.06

System: not listed separately
Assay: physchem
Settings: octanol/water

Compound | logP
Nc1cccc(Cl)c1 [3-CHLOROANILINE] | 1.88
O=c1[nH]cc(I)c(=O)[nH]1 | 0.04
Sc1ccccc1 [BENZENETHIOL] | 2.52
FC(Cl)Cl | 1.55
CI [IODOMETHANE] | 1.51
O=[N+]([O-])CCO | -0.42
COc1ccccc1 [ANISOLE] | 2.08
CCCl [ETHYL CHLORIDE] | 1.43
ClCCl [METHYLENE CHLORIDE] | 1.25
O=CO [FORMIC ACID] | -0.54
CBr [BROMOMETHANE] | 1.19
CCCCCF | 2.33
O=[N+]([O-])c1cccc(I)c1 | 2.94
CSc1ccccc1 | 2.74
CCOCC [ETHER] | 0.77
C#C [ETHYNE] | 0.37
COC(C)=O [ACETIC ACID METHYL ESTER] | 0.18
FC(F)(Cl)C(F)(F)Cl [DICHLOROTETRAFLUOROETHANE] | 2.82
O=Nc1ccccc1 [NITROSOBENZENE] | 2.01
CN(C)N=O [N-NITROSODIMETHYLAMINE] | -0.57
OCC(Cl)(Cl)Cl [TRICHLORETHANOL] | 1.42
CC#CC | 1.46
C=CCC | 2.4
O=Nc1ccc(O)c(C(=O)O)c1 | 2.34
O=NN(CCF)C(=O)NCCCl | 0.95

Compound | logP
CC(C)N(N=O)C(C)C | 1.63
CCN [ETHYLAMINE] | -0.13
CC(C)N [ISOPROPYLAMINE] | 0.26
CC#N [ACETONITRILE] | -0.34
CC(O)CN (configuration not stated) | -0.96
FC(F)Cl | 1.08
CC[N+](=O)[O-] [NITROETHANE] | 0.18
CS(=O)(=O)c1ccccc1 [METHYLPHENYLSULFONE] | 0.48
C[N+](C)(C)CCI | -3
C1=CCOC1 | 0.46
CCOCCO [2-ETHOXYETHANOL] | -0.54
CCNC(N)=S | -0.66
Brc1ccccn1 | 1.38
C#CC [PROPYNE] | 0.94
ClC(Cl)=C(Cl)Cl [TETRACHLOROETHYLENE] | 2.6
CCOC(C)=O [ETHYL ACETATE] | 0.7
O=C(O)CS [THIOGLYCOLIC ACID] | 0.09
NC(=O)C(Cl)(Cl)Cl | 1.04
CN [METHYLAMINE] | -0.57
CC(Cl)(Cl)Cl [TRICHLOROETHANE] | 2.49
N=C=N [CARBIMIDE] | -0.5
COC [METHOXYMETHANE] | 0.1
C=C=C | 1.45
NC(=O)C(F)(F)F [TRIFLUOROACETAMIDE] | 0.12
CCSCC [DIETHYL SULFIDE] | 1.95

Compound | logP
CO [METHYL ALCOHOL] | -0.71
CF [FLUOROMETHANE] | 0.51
Clc1ccccc1 [CHLOROBENZENE] | 2.46
C[S+]([O-])c1ccccc1 (configuration not stated) [METHYLPHENYLSULFOXIDE] | 0.55
FCF | 0.2
C=COCC | 1.04
CC(F)F | 0.75
NC(=O)CBr | -0.52
Cc1cccc([N+](C)(C)C)c1 | -2.31
C=C | 1.13
C=CC [PROPENE] | 1.77
NC(N)=O [UREA] | -1.09
CN(N=O)C(N)=O [N-METHYL-N-NITROSUREA] | -0.16
C=CC#N [ACRYLONITRILE] | -0.92
FC(F)(F)C(F)(F)F | 2
OCC(F)(F)F [TRIFLUOROETHANOL] | 0.41
Oc1cccc(I)c1 | 3
ClC=C(Cl)Cl [TRICHLOROETHYLENE] | 2.29
CNC(C)=O | -1.05
O=C(O)CBr [BROMOACETIC ACID] | 0.41
C=C(F)F | 1.24
Brc1ccncc1 | 1.54
OCC(Cl)Cl | 0.37
